Data from ChEMBL document CHEMBL1681640, “Serendipitous discovery of a new class of agonists for the melanocortin 1 and 4 receptors and a new class of cyclophanes” (Bioorg Med Chem Lett, 2011).
Calls of active or inactive are those of the source. The calls are words filed in the database; no cut-off is given here.

Tests used:
[1] = biological target: T1, Melanocyte-stimulating hormone receptor (Homo sapiens, UniProt Q01726); experiment: Agonist activity at human MC1 receptor expressed in BHK cells assessed as stimulation of agonist-induced cAMP accumulation; format: functional, cell-based
Target sequence in this assay (Q01726 whole entry): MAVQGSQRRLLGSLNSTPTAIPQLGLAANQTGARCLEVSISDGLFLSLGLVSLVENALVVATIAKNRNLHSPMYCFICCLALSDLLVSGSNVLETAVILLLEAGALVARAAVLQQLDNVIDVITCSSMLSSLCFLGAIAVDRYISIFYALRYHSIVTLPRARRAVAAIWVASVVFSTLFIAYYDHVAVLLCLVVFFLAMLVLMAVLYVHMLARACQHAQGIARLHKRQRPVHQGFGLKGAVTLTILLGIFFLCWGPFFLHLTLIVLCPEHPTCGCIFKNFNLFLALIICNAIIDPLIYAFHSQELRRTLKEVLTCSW

Rattus norvegicus = experiment: Reduction in food intake in Sprague-Dawley rat at 0.1 to 1 mg/kg, ip for first 3 hrs; format: functional, organism-based
Melanocortin receptor 4 [2] = biological target: T2, Melanocortin receptor 4 (Homo sapiens, UniProt P32245); experiment: Inhibition of human MC4 receptor expressed in BHK cells in presence of SHU9119 receptor antagonist
Target sequence in this assay (P32245 whole entry, looked up): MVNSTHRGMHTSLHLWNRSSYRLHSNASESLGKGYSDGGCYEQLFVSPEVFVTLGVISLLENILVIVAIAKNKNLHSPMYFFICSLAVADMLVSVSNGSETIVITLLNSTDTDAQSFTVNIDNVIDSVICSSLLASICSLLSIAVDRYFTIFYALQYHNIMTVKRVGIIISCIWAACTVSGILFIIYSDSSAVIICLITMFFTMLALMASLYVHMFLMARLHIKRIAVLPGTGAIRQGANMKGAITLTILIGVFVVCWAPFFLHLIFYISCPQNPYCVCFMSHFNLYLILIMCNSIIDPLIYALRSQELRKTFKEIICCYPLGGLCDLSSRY

Melanocortin receptor 4 [3] = biological target: T2, Melanocortin receptor 4; experiment: Displacement of [125I]NDP-alpha-MSH from human MC4 receptor expressed in BHK cells; format: cell-based
Target sequence in this assay (P32245 whole entry): as the sequence (P32245 whole entry, looked up) above

Melanocortin receptor 5 [4] = biological target: T3, Melanocortin receptor 5 (Homo sapiens, UniProt P33032); experiment: Agonist activity at human MC5 receptor expressed in BHK cells assessed as stimulation of agonist-induced cAMP accumulation; format: functional, cell-based
T3 sequence (P33032 whole entry): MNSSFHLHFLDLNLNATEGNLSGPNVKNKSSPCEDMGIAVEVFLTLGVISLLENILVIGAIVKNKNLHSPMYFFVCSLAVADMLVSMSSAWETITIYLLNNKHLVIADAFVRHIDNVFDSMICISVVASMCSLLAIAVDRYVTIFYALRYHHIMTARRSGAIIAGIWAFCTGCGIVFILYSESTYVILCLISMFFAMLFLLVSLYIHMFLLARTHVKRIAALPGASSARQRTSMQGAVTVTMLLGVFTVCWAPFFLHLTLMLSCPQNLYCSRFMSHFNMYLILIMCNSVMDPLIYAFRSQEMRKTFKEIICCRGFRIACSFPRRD

[5] = biological target: T1, Melanocyte-stimulating hormone receptor; experiment: Displacement of [125I]NDP-alpha-MSH from human MC1 receptor expressed in BHK cells; format: cell-based
Target sequence in this assay (Q01726 whole entry): as the sequence (Q01726 whole entry) above

Melanocortin receptor 3 [6] = biological target: T4, Melanocortin receptor 3 (Homo sapiens, UniProt P41968); experiment: Agonist activity at human MC3 receptor expressed in BHK cells assessed as stimulation of agonist-induced cAMP accumulation; format: functional, cell-based
T4 sequence (P41968 whole entry): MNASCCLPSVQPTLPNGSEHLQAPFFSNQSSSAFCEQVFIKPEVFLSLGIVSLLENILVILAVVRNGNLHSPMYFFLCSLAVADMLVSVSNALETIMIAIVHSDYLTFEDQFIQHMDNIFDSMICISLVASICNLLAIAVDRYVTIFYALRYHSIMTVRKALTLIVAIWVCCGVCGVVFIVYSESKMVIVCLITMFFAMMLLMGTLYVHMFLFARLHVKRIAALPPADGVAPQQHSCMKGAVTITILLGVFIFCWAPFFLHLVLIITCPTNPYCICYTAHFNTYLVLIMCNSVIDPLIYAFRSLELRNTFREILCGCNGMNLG

Melanocortin receptor 4 [7] = biological target: T2, Melanocortin receptor 4; experiment: Agonist activity at human MC4 receptor expressed in BHK cells assessed as stimulation of agonist-induced cAMP accumulation relative to agonist; format: functional, cell-based
Target sequence in this assay (P32245 whole entry): as the sequence (P32245 whole entry, looked up) above

Melanocortin receptor 3 [8] = biological target: T4, Melanocortin receptor 3; experiment: Displacement of [125I]NDP-alpha-MSH from human MC3 receptor expressed in BHK cells; format: cell-based
Melanocortin receptor 5 [9] = biological target: T3, Melanocortin receptor 5; experiment: Displacement of [125I]NDP-alpha-MSH from human MC5 receptor expressed in BHK cells; format: cell-based
Melanocortin receptor 4 [10] = biological target: T2, Melanocortin receptor 4; experiment: Agonist activity at human MC4 receptor expressed in BHK cells assessed as stimulation of agonist-induced cAMP accumulation; format: functional, cell-based
Target sequence in this assay (P32245 whole entry): as the sequence (P32245 whole entry, looked up) above

[11] = biological target: T1, Melanocyte-stimulating hormone receptor; experiment: Agonist activity at human MC1 receptor expressed in BHK cells assessed as stimulation of agonist-induced cAMP accumulation relative to agonist; format: functional, cell-based
Target sequence in this assay (Q01726 whole entry, looked up): as the sequence (Q01726 whole entry) above

Row | EC50 [1] | inhibition (Melanocortin receptor 4 [2]) | Ki (Melanocortin receptor 4 [3]) | EC50 (Melanocortin receptor 5 [4]) | Ki [5] | EC50 (Melanocortin receptor 3 [6]) | Emax (Melanocortin receptor 4 [7]) | Ki (Melanocortin receptor 3 [8]) | Ki (Melanocortin receptor 5 [9]) | EC50 (Melanocortin receptor 4 [10]) | Emax [11] | SMILES | Activity (Rattus norvegicus)
1 | 16 nM | Active | 392 nM | > 10000 nM | 116 nM | > 10000 nM | 61% | 1180 nM | 388 nM | 466 nM | 83% | COCC(=O)N[C@H]1Cc2ccc(OC)c(c2)Cc2ccc(cc2)Oc2cccc(c2)CN(CCCN2CCN(CCCN)CC2)C1=O | Active
2 | 12 nM | Active | 403 nM | > 10000 nM | 328 nM | > 10000 nM | 98% | 4530 nM | 1530 nM | 697 nM | 85% | COCC(=O)N[C@H]1Cc2cc3c(c(c2)Cc2ccc(cc2)Oc2cccc(c2)CN(CCCN2CCN(CCCN)CC2)C1=O)OCOC3 | –
